One experiment relates to ECHCG (Barnyardgrass). Kind of experiment: Postemergence herbicidal evaluation. Format: in vivo, Echinochloa crus-galli. To be noted: postemergence. An outline of the steps: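 Visual 0–9 rating versus control (stand, vigor, malformation, size, chlorosis, overall appearance), taken four to five weeks post-spray. Two-week-old seedlings received roughly 0.0156–0.500 kg/ha active in acetone/water (50/50) with 0.5% TWEEN 20 via nozzle at 40 psi.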

Experiment [1] relates to ECHORC (Watergrass (Calif.)). The experiment is described as follows: Preemergence weed control under flooded paddy conditions. To be noted: rated 3-4 weeks after treatment. Format: in vivo, Echinochloa oryzoides. An outline of the steps:
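Seeds or propagules sown in silt loam kept flooded 1.5-3 cm; compounds in 50/50 acetone/water pipetted into flood water at about 0.0313 to 0.500 kg/ha. Greenhouse; visual 0-9 rating versus untreated control 3-4 weeks after treatment.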

For experiment [2], the system named is CHEAL (Lambsquarters, Common). The experiment is described as follows: Preemergence herbicidal evaluation. To be noted: rated 4-5 weeks after treatment; for CHEAL rating: preemergence, 0-9 scale. Format: in vivo, Chenopodium album. Put shortly: (§1)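 Rating at 4–5 wk post-spray on a 0–9 visual scale vs control. Application: aqueous acetone, ~0.0156–0.500 kg/ha, to soil surface after seeding, preemergence.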

The test system of a further experiment is ORYSAT (Rice, Tebonnet). Kind of experiment: Preemergence herbicidal evaluation. Format: in vivo, Oryza sativa, (L.) Tebonnet. To be noted: rated 4-5 weeks after treatment; for ORYSAT rating: preemergence, 0-9 scale. Put shortly: as §1
The test system of a further experiment is CYPSE (Flatsedge). Kind of experiment: Preemergence weed control under flooded paddy conditions. To be noted: rated 3-4 weeks after treatment. The class given is in vivo, Cyperus serotinus. An outline of the steps:
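Using flooded silt loam (water 1.5 to 3 cm deep), seeds sown in the top 0.5 cm were exposed preemergence to compound pipetted into the flood at about 0.0313 to 0.500 kg/ha. Effects were scored 0-9 by eye three to four weeks later.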

[3] abbreviates: rate 0.1250 kg/ha, rating scale 0-9.
[4] abbreviates: rate 0.2500 kg/ha, rating scale 0-9.
[5] abbreviates: rate 0.0156 kg/ha, rating scale 0-9.
Setting [6] is: rate 0.0313 kg/ha, rating scale 0-9.
The mark [7] stands for this setting: rate 0.0625 kg/ha, rating scale 0-9.

Turning to `COC(=O)CSCCN1C(=O)CSC1=Nc1cc(-n2c(=O)cc(C(F)(F)F)n(C)c2=O)c(F)cc1Cl` [Compound 158, Methyl {{2-{2-{{2-chloro-5-[3,6-dihydro-3-methyl-2,6-dioxo-4-(trifluoromethyl)-1(2H)-pyrimidinyl]-4-fluorophenyl}imino}-4-oxo-3-thiazolidinyl}ethyl}-thio}acetate], the “herbicidal rating ECHCG” value in the experiment with ECHCG (Barnyardgrass) (rate 0.0156 kg/ha) was determined as 2.0; in the experiment with ECHCG (Barnyardgrass) (rate 0.0313 kg/ha), 2.0; with ECHCG (Barnyardgrass) (rate 0.0625 kg/ha) it was 3.0. In addition, the “herbicidal effect rating, ECHORC” value in experiment [1] (0.0313 kg/ha), in experiment [1] (0.0625 kg/ha), in experiment [1] (0.1250 kg/ha) and in experiment [1] (0.2500 kg/ha) was 9.0 each time. Besides, the “Preemergence herbicidal rating CHEAL” value in experiment [2] (0.0156 kg/ha), in experiment [2] (0.0313 kg/ha), in experiment [2] (0.0625 kg/ha), in experiment [2] (setting [3]) and in experiment [2] (setting [4]) was 9.0 in each case. In addition, the “Preemergence herbicidal rating ORYSAT” value with ORYSAT (Rice, Tebonnet) (0.0156 kg/ha) is on record as 3.0; in the experiment on ORYSAT (Rice, Tebonnet) (0.0313 kg/ha), 4.0; with ORYSAT (Rice, Tebonnet) (0.0625 kg/ha), 7.0; with ORYSAT (Rice, Tebonnet) (setting [3]), 7.0; in the experiment on ORYSAT (Rice, Tebonnet) (setting [4]) it was 8.0. Further, the “herbicidal effect rating, CYPSE” value with CYPSE (Flatsedge) (0.0313 kg/ha) is 5.0; in the experiment on CYPSE (Flatsedge) (0.0625 kg/ha), 9.0; in the experiment with CYPSE (Flatsedge) (0.1250 kg/ha) it was 9.0; with CYPSE (Flatsedge) (0.2500 kg/ha), 9.0.

`C=CCOC(=O)CN1C(=O)CSC1=Nc1cc(-n2c(=O)cc(C(F)(F)F)n(C)c2=O)c(F)cc1Cl` [Compound 106, Allyl 2-{{2-chloro-5-[3,6-dihydro-3-methyl-2,6-dioxo-4-(trifluoromethyl)-1(2H)-pyrimidinyl]-4-fluorophenyl}imino}-4-oxo-3-thiazolidineacetate]: the “herbicidal rating ECHCG” value was determined as 2.0 in the experiment with ECHCG (Barnyardgrass) (rate 0.0158 kg/ha), 2.0 in the experiment on ECHCG (Barnyardgrass) (rate 0.0315 kg/ha) and 7.0 in the experiment on ECHCG (Barnyardgrass) (rate 0.0630 kg/ha). For the same compound, the “ECHORC herbicidal effect rating” value in experiment [1] (0.0313 kg/ha) is 2.0; in experiment [1] (0.0625 kg/ha) it was 4.0; in experiment [1] (0.1250 kg/ha), 5.0; in experiment [1] (0.2500 kg/ha) it was 7.0. For the same compound, the CHEAL rating in experiment [2] (0.0313 kg/ha), in experiment [2] (0.0625 kg/ha), in experiment [2] (0.1250 kg/ha) and in experiment [2] (0.2500 kg/ha) was 9.0 each time. Moreover, the “Preemergence herbicidal rating CHEAL” value in experiment [2] (rate 0.0156 kg/ha) is 8.0. Moreover, the ORYSAT rating in the experiment with ORYSAT (Rice, Tebonnet) (0.0313 kg/ha) came out at 1.0; with ORYSAT (Rice, Tebonnet) (0.0625 kg/ha), 2.0; with ORYSAT (Rice, Tebonnet) (0.1250 kg/ha), 2.5; with ORYSAT (Rice, Tebonnet) (0.2500 kg/ha), 5.0. In the experiment on ORYSAT (Rice, Tebonnet) (rate 0.0156 kg/ha), the “Preemergence herbicidal rating ORYSAT” value stood at 1.5. Besides, the “CYPSE herbicidal effect rating” value with CYPSE (Flatsedge) (0.0313 kg/ha) is 0.0; in the experiment on CYPSE (Flatsedge) (0.0625 kg/ha) it was 0.0; in the experiment on CYPSE (Flatsedge) (0.1250 kg/ha), 2.0; in the experiment on CYPSE (Flatsedge) (0.2500 kg/ha), 6.0.

For `Cn1c(C(F)(F)F)cc(=O)n(-c2cc(N=C3SCC(=O)N3CC(=O)OCC3CC3)c(Cl)cc2F)c1=O` [Compound 124, Cyclopropylmethyl 2-{{2-chloro-5-[3,6-dihydro-3-methyl-2,6-dioxo-4-(trifluoromethyl)-1(2H)-pyrimidinyl]-4-fluorophenyl}imino}-4-oxo-3-thiazolidineacetate], the figures for the “herbicidal rating ECHCG” value in the experiment with ECHCG (Barnyardgrass) (rate 0.0156 kg/ha), with ECHCG (Barnyardgrass) (rate 0.0313 kg/ha) and in the experiment with ECHCG (Barnyardgrass) (rate 0.0625 kg/ha) were 3.0, 3.0 and 5.0, respectively. In addition, the “herbicidal effect rating, ECHORC” value in experiment [1] (0.0313 kg/ha) was 5.0; in experiment [1] (0.0625 kg/ha), 5.0; in experiment [1] (0.1250 kg/ha) it was 9.0; in experiment [1] (0.2500 kg/ha), 8.0. The “Preemergence herbicidal rating CHEAL” value in experiment [2] (rate 0.0156 kg/ha), in experiment [2] (rate 0.0313 kg/ha), in experiment [2] (rate 0.0625 kg/ha), in experiment [2] (rate 0.1250 kg/ha), in experiment [2] (rate 0.2500 kg/ha) and in experiment [2] (rate 0.5000 kg/ha) was 9.0 throughout. For the same compound, the “Preemergence herbicidal rating ORYSAT” value is 0.0 with ORYSAT (Rice, Tebonnet) (rate 0.0156 kg/ha); 0.0 in the experiment on ORYSAT (Rice, Tebonnet) (rate 0.0313 kg/ha); 0.0 in the experiment on ORYSAT (Rice, Tebonnet) (rate 0.0625 kg/ha); 0.0 with ORYSAT (Rice, Tebonnet) (rate 0.1250 kg/ha); 0.0 in the experiment with ORYSAT (Rice, Tebonnet) (rate 0.2500 kg/ha); 2.0 with ORYSAT (Rice, Tebonnet) (rate 0.5000 kg/ha). Further, the “herbicidal effect rating, CYPSE” value came to 0.0 with CYPSE (Flatsedge) (0.0313 kg/ha), 0.0 in the experiment on CYPSE (Flatsedge) (0.0625 kg/ha), 2.0 in the experiment with CYPSE (Flatsedge) (0.1250 kg/ha) and 3.0 with CYPSE (Flatsedge) (0.2500 kg/ha).

On to `Cc1ccc(CN2C(=O)CSC2=Nc2cc(-n3c(=O)cc(C(F)(F)F)n(C)c3=O)c(F)cc2Cl)cc1C` [Compound 147, 3-{4-Chloro-5-{[3-(3,4-dimethylbenzyl)-4-oxo-2-thiazolidinylidene]amino}-2-fluorophenyl}-1-methyl-6-(trifluoromethyl)-2,4(1H,3H)-pyrimidinedione], for which the “herbicidal rating ECHCG” value in the experiment with ECHCG (Barnyardgrass) (rate 0.0156 kg/ha) was determined as 1.0; in the experiment on ECHCG (Barnyardgrass) (rate 0.0313 kg/ha), 2.0; in the experiment with ECHCG (Barnyardgrass) (rate 0.0625 kg/ha) it was 1.0. Further, the “herbicidal effect rating, ECHORC” value in experiment [1] (0.0313 kg/ha) was determined as 5.0; in experiment [1] (0.0625 kg/ha), 7.0; in experiment [1] (0.1250 kg/ha) it was 9.0; in experiment [1] (0.2500 kg/ha), 9.0. In addition, the “Preemergence herbicidal rating CHEAL” value was found to be 0.0 in experiment [2] (setting [5]); 0.0 in experiment [2] (setting [6]); 6.0 in experiment [2] (setting [7]); 9.0 in experiment [2] (setting [3]); 9.0 in experiment [2] (setting [4]). Moreover, the “Preemergence herbicidal rating ORYSAT” value is 0.0 in the experiment with ORYSAT (Rice, Tebonnet) (setting [5]); 0.0 in the experiment with ORYSAT (Rice, Tebonnet) (setting [6]); 0.0 in the experiment on ORYSAT (Rice, Tebonnet) (setting [7]); 0.0 with ORYSAT (Rice, Tebonnet) (setting [3]); 0.0 in the experiment on ORYSAT (Rice, Tebonnet) (setting [4]). Also, the “herbicidal effect rating, CYPSE” value with CYPSE (Flatsedge) (0.2500 kg/ha) is 0.0.

Turning to `COc1ccc(CN2C(=O)CSC2=Nc2cc(-n3c(=O)cc(C(F)(F)F)n(C)c3=O)c(F)cc2Cl)c(OC)c1` [Compound 139, 3-{4-Chloro-5-{[3-(2,4-dimethoxybenzyl)-4-oxo-2-thiazolidinylidene]amino}-2-fluorophenyl}-1-methyl-6-(trifluoromethyl)-2,4(1H,3H)-pyrimidinedione], the “herbicidal rating ECHCG” value is listed as 3.0 in the experiment with ECHCG (Barnyardgrass) (rate 0.0156 kg/ha), 2.0 in the experiment with ECHCG (Barnyardgrass) (rate 0.0313 kg/ha) and 3.0 in the experiment on ECHCG (Barnyardgrass) (rate 0.0625 kg/ha). Also, the “herbicidal effect rating, ECHORC” value in experiment [1] (0.0313 kg/ha) was found to be 6.0; in experiment [1] (0.0625 kg/ha), 7.0; in experiment [1] (0.1250 kg/ha), 7.0; in experiment [1] (0.2500 kg/ha), 7.0. Also, the “Preemergence herbicidal rating CHEAL” value in experiment [2] (setting [5]) was 0.0; in experiment [2] (setting [6]), 7.0; in experiment [2] (setting [7]), 9.0; in experiment [2] (setting [3]) it was 9.0; in experiment [2] (setting [4]), 9.0. Also, the “Preemergence herbicidal rating ORYSAT” value with ORYSAT (Rice, Tebonnet) (setting [5]) amounted to 0.0; in the experiment with ORYSAT (Rice, Tebonnet) (setting [6]), 0.0; in the experiment on ORYSAT (Rice, Tebonnet) (setting [7]), 0.0; in the experiment with ORYSAT (Rice, Tebonnet) (setting [3]), 1.0; with ORYSAT (Rice, Tebonnet) (setting [4]), 2.0. Moreover, the “herbicidal effect rating, CYPSE” value in the experiment with CYPSE (Flatsedge) (0.1250 kg/ha) and with CYPSE (Flatsedge) (0.2500 kg/ha) was 0.0 in each case.

(Values after patent US20020137929A1, “1 - (3-heterocyclylphenyl) isothiourea, -isourea, -guanidine and -amidine herbicidal agents” (Intellectual Property Department, BASF Aktiengesellschaft, priority 1998, published 2002).)
